Laboratory results as given in PubChem BioAssay AID2060896 (Molecular Pharmacology Branch, DTP, NCI, 2025).
Values joined by “and” are separate entries in the source; they are usually repeats but may differ in a detail not shown here. Identical values can stand only once. Each block holds one molecule with its values, some of them ahead of it.

Test system: 941728-121-R-J1-PDC complex spheroid viability
Assay: Anticancer human tumor 941728-121-R-J1-PDC patient-derived lung adenocarcinoma cell line growth inhibition [RAS]
Conditions: for viability, T/C: stronger effect = lower value
Outline: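 Agents were tested in combination matrices in half-log decrements from a top concentration at or near clinical Cmax (10 microM if undetermined). Targets were multi-cell spheroids of tumour lines plus HUVEC and MSC stromal cells.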

[1] = curve of first compound, second compound 0.00316 µM
[2] = curve of first compound, second compound 0.01 µM
[3] = curve of first compound, second compound 0.0316 µM
[4] = curve of first compound, second compound 0.1 µM
[5] = curve of first compound, second compound 0.316 µM
[6] = curve of first compound, second compound 1 µM
[7] = second compound 0.00316 µM, first compound 0.0316 µM
[8] = second compound 0.00316 µM, first compound 0.1 µM
[9] = second compound 0.00316 µM, first compound 0.316 µM
[10] = second compound 0.00316 µM, first compound 1 µM
[11] = second compound 0.00316 µM, first compound 3.16 µM
[12] = second compound 0.00316 µM, first compound 10 µM
[13] = second compound 0.01 µM, first compound 0.0316 µM
[14] = second compound 0.01 µM, first compound 0.1 µM
[15] = second compound 0.01 µM, first compound 0.316 µM
[16] = second compound 0.01 µM, first compound 1 µM
[17] = second compound 0.01 µM, first compound 3.16 µM
[18] = second compound 0.01 µM, first compound 10 µM
[19] = second compound 0.0316 µM, first compound 0.0316 µM
[20] = second compound 0.0316 µM, first compound 0.1 µM
[21] = second compound 0.0316 µM, first compound 0.316 µM
[22] = second compound 0.0316 µM, first compound 1 µM
[23] = second compound 0.0316 µM, first compound 3.16 µM
[24] = second compound 0.0316 µM, first compound 10 µM
[25] = second compound 0.1 µM, first compound 0.0316 µM
[26] = second compound 0.1 µM, first compound 0.1 µM
[27] = second compound 0.1 µM, first compound 0.316 µM
[28] = second compound 0.1 µM, first compound 1 µM
[29] = second compound 0.1 µM, first compound 3.16 µM
[30] = second compound 0.1 µM, first compound 10 µM
[31] = second compound 0.316 µM, first compound 0.0316 µM
[32] = second compound 0.316 µM, first compound 0.1 µM
[33] = second compound 0.316 µM, first compound 0.316 µM
[34] = second compound 0.316 µM, first compound 1 µM
[35] = second compound 0.316 µM, first compound 3.16 µM
[36] = second compound 0.316 µM, first compound 10 µM
[37] = second compound 1 µM, first compound 0.0316 µM
[38] = second compound 1 µM, first compound 0.1 µM
[39] = second compound 1 µM, first compound 0.316 µM
[40] = second compound 1 µM, first compound 1 µM
[41] = second compound 1 µM, first compound 3.16 µM
[42] = second compound 1 µM, first compound 10 µM
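Also: spheroids exposed to compounds for 7 days before readout.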
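For viability, T/C in this document: 100% = DMSO vehicle control viability.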

Structure (SMILES): CC(=O)OC12COC1CC(O)C1(C)C(=O)C(O)C3=C(C)C(OC(=O)C(O)C(NC(=O)OC(C)(C)C)c4ccccc4)CC(O)(C(OC(=O)c4ccccc4)C21)C3(C)C (centres undefined) + CCn1c(-c2cccnc2C(C)OC)c2c3cc(ccc31)N1CCOC(CC(NC(=O)C(C(C)C)N(C)C(=O)C3(F)CCN(C(=O)C#CC(C)(C)N(C)C)CC3)C(=O)N3CCCC(N3)C(=O)OCC(C)(C)C2)C1
IC50 (curve of first compound, second compound 0.000949 µM): < 31.6 nM | IC50 (curve of first compound, second compound 0.003 µM): < 31.6 nM | IC50 (curve of first compound, second compound 0.00949 µM): < 31.6 nM | IC50 (curve of first compound, second compound 0.03 µM): < 31.6 nM | IC50 (curve of first compound, second compound 0.0949 µM): < 31.6 nM | IC50 (curve of first compound, second compound 0.3 µM): < 31.6 nM | viability, T/C (second compound 0.000949 µM, first compound 0.0316 µM): 18.3% | viability, T/C (second compound 0.000949 µM, first compound 0.1 µM): 15.4% | viability, T/C (second compound 0.000949 µM, first compound 0.316 µM): 11.9% | viability, T/C (second compound 0.000949 µM, first compound 1 µM): 15.6% | viability, T/C (second compound 0.000949 µM, first compound 3.16 µM): 15.1% | viability, T/C (second compound 0.000949 µM, first compound 10 µM): 14.2% | viability, T/C (second compound 0.003 µM, first compound 0.0316 µM): 17.3% | viability, T/C (second compound 0.003 µM, first compound 0.1 µM): 15.6% | viability, T/C (second compound 0.003 µM, first compound 0.316 µM): 13.1% | viability, T/C (second compound 0.003 µM, first compound 1 µM): 14.4% | viability, T/C (second compound 0.003 µM, first compound 3.16 µM): 14.9% | viability, T/C (second compound 0.003 µM, first compound 10 µM): 11.1% | viability, T/C (second compound 0.00949 µM, first compound 0.0316 µM): 16.9% | viability, T/C (second compound 0.00949 µM, first compound 0.1 µM): 13.9% | viability, T/C (second compound 0.00949 µM, first compound 0.316 µM): 13.1% | viability, T/C (second compound 0.00949 µM, first compound 1 µM): 13.8% | viability, T/C (second compound 0.00949 µM, first compound 3.16 µM): 12.7% | viability, T/C (second compound 0.00949 µM, first compound 10 µM): 12.7% | viability, T/C (second compound 0.03 µM, first compound 0.0316 µM): 17.6% | viability, T/C (second compound 0.03 µM, first compound 0.1 µM): 16.2% | viability, T/C (second compound 0.03 µM, first compound 0.316 µM): 14.4% | viability, T/C (second compound 0.03 µM, first compound 1 µM): 13% | viability, T/C (second compound 0.03 µM, first compound 3.16 µM): 14.6% | viability, T/C (second compound 0.03 µM, first compound 10 µM): 16.3% | viability, T/C (second compound 0.0949 µM, first compound 0.0316 µM): 15.9% | viability, T/C (second compound 0.0949 µM, first compound 0.1 µM): 15.1% | viability, T/C (second compound 0.0949 µM, first compound 0.316 µM): 16.1% | viability, T/C (second compound 0.0949 µM, first compound 1 µM): 15.3% | viability, T/C (second compound 0.0949 µM, first compound 3.16 µM): 13.6% | viability, T/C (second compound 0.0949 µM, first compound 10 µM): 17.3% | viability, T/C (second compound 0.3 µM, first compound 0.0316 µM): 16.8% | viability, T/C (second compound 0.3 µM, first compound 0.1 µM): 17.5% | viability, T/C (second compound 0.3 µM, first compound 0.316 µM): 16.6% | viability, T/C (second compound 0.3 µM, first compound 1 µM): 15.9% | viability, T/C (second compound 0.3 µM, first compound 3.16 µM): 15.8% | viability, T/C (second compound 0.3 µM, first compound 10 µM): 16.9%

Structure (SMILES): CCn1c(-c2cc(N3CCN(C)CC3)cnc2C(C)OC)c2c3cc(ccc31)-c1csc(n1)CC(NC(=O)C1CC1C)C(=O)N1CCCC(N1)C(=O)OCC(C)(C)C2 (centres undefined)
viability, T/C (compound 0.000949 µM): 28.7% [middle of 8 runs] | viability, T/C (compound 0.003 µM): 23.8% [middle of 8 runs] | viability, T/C (compound 0.00949 µM): 17.1% [middle of 8 runs] | viability, T/C (compound 0.03 µM): 13.9% [middle of 8 runs] | viability, T/C (compound 0.0949 µM): 14.7% [middle of 8 runs] | viability, T/C (compound 0.3 µM): 13.4% [middle of 8 runs] | IC50 (compound alone, run of 07/09/2024): < 0.949 nM

The next lines start with results.

IC50 [1]: < 31.6 nM | IC50 [2]: < 31.6 nM | IC50 [3]: < 31.6 nM | IC50 [4]: < 31.6 nM | IC50 [5]: < 31.6 nM | IC50 [6]: < 31.6 nM
Structure (SMILES): CC(=O)OC12COC1CC(O)C1(C)C(=O)C(O)C3=C(C)C(OC(=O)C(O)C(NC(=O)OC(C)(C)C)c4ccccc4)CC(O)(C(OC(=O)c4ccccc4)C21)C3(C)C (centres undefined) + C=CC(=O)N1CCN(c2nc(OCC3CCCN3C)nc3c(F)c(-c4nc(N)cc(C)c4C(F)(F)F)c(Cl)cc23)C(C)C1
viability, T/C [7]: 15.8% | viability, T/C [8]: 13.3% | viability, T/C [9]: 13.2% | viability, T/C [10]: 12.3% | viability, T/C [11]: 13.6% | viability, T/C [12]: 20.4% | viability, T/C [13]: 15.8% | viability, T/C [14]: 10.3% | viability, T/C [15]: 12.7% | viability, T/C [16]: 12.2% | viability, T/C [17]: 12.1% | viability, T/C [18]: 12.1% | viability, T/C [19]: 14.4% | viability, T/C [20]: 14.1% | viability, T/C [21]: 11% | viability, T/C [22]: 12.8% | viability, T/C [23]: 13.1% | viability, T/C [24]: 12.2% | viability, T/C [25]: 14.1% | viability, T/C [26]: 15.6% | viability, T/C [27]: 12% | viability, T/C [28]: 13.8% | viability, T/C [29]: 13.8% | viability, T/C [30]: 12.6% | viability, T/C [31]: 13.5% | viability, T/C [32]: 13% | viability, T/C [33]: 14.1% | viability, T/C [34]: 13.8% | viability, T/C [35]: 13.1% | viability, T/C [36]: 16.2% | viability, T/C [37]: 14.7% | viability, T/C [38]: 13.5% | viability, T/C [39]: 12.6% | viability, T/C [40]: 14.6% | viability, T/C [41]: 14% | viability, T/C [42]: 14.5%

IC50 [1]: < 31.6 nM | IC50 [2]: < 31.6 nM | IC50 [3]: < 31.6 nM | IC50 [4]: < 31.6 nM | IC50 [5]: < 31.6 nM | IC50 [6]: < 31.6 nM
Structure (SMILES): CCC(CC)c1cc(NC2CCC(N)C2)n2nccc2n1 (centres undefined) + C=CC(=O)N1CCN(c2nc(OCC3CCCN3C)nc3c(F)c(-c4nc(N)cc(C)c4C(F)(F)F)c(Cl)cc23)C(C)C1
viability, T/C [7]: 19.6% | viability, T/C [8]: 18.1% | viability, T/C [9]: 20.3% | viability, T/C [10]: 27.2% | viability, T/C [11]: 13.7% | viability, T/C [12]: 29.1% | viability, T/C [13]: 20.1% | viability, T/C [14]: 19.9% | viability, T/C [15]: 21.8% | viability, T/C [16]: 28.4% | viability, T/C [17]: 13.3% | viability, T/C [18]: 25% | viability, T/C [19]: 20% | viability, T/C [20]: 24.5% | viability, T/C [21]: 23.5% | viability, T/C [22]: 27.3% | viability, T/C [23]: 13.7% | viability, T/C [24]: 25.9% | viability, T/C [25]: 19.7% | viability, T/C [26]: 18.3% | viability, T/C [27]: 23.4% | viability, T/C [28]: 27.3% | viability, T/C [29]: 16.6% | viability, T/C [30]: 25.9% | viability, T/C [31]: 19.1% | viability, T/C [32]: 21.6% | viability, T/C [33]: 21.5% | viability, T/C [34]: 26% | viability, T/C [35]: 14.9% | viability, T/C [36]: 26.1% | viability, T/C [37]: 20.6% | viability, T/C [38]: 21.2% | viability, T/C [39]: 22.6% | viability, T/C [40]: 30.2% | viability, T/C [41]: 16.8% | viability, T/C [42]: 32.5%

IC50 (curve of compound): 844 nM and 5470 nM and 2640 nM
Structure (SMILES): CC(C)NCC(C(=O)N1CCN(c2ncnc3c2C(C)CC3O)CC1)c1ccc(Cl)cc1 (centres undefined)
viability, T/C (compound 0.0316 µM): 93.8% [middle of 4 runs] | viability, T/C (compound 0.1 µM): 90.7% [middle of 4 runs] | viability, T/C (compound 0.316 µM): 74.2% [middle of 4 runs] | viability, T/C (compound 3.16 µM): 54.6% [middle of 4 runs] | viability, T/C (compound 10 µM): 42.7% [middle of 4 runs]
